A short description of data set [1]: Displacement of 5-TAMRA-SRDLFSVTFDLGFCSPDSDD-NH2 from recombinant N-terminal 6His/SUMO-tagged RMI1/2 (unknown origin) extracted from Escherichia coli BL21 (DE3) cells incubated for 1 hrs by competitive fluorescence polarization assay. Particulars: for Activity: Homo sapiens. Background: Fluorescence polarisation rises when a labelled molecule tumbles more slowly, as on binding a larger partner.

The species entered for another data set is Homo sapiens. Nature of the data set: Binding affinity to N-terminal 6His/Avi-tagged biotinylated RMI1/2 (unknown origin) extracted from Escherichia coli BL21 (DE3)cells by SPR analysis. A general note: SPR reads the build-up and loss of mass on a sensor chip optically.
Data set [2] in a line: Binding affinity to N-terminal 6His/Avi-tagged biotinylated RMI1/2 (unknown origin) extracted from Escherichia coli BL21 (DE3) cells assessed as dissociation constant by SPR analysis. On the set-up: species or system Homo sapiens.
Data set [3] can be described thus: Proteolytic stability in Tris-HCl buffer at pH 7.8 assessed as alpha-chymotrypsin (unknown origin) mediated compound degradation at 20 uM incubated for 5 hrs by HPLC analysis. The data set is classed as ADME. To be noted: human, pH 7.8, 5 h.
The subject of the next data set is U2OS. Nature of the data set: Disruption of FANCM-RMI1/2 protein-protein interaction in human U2OS cells assessed as reduction in FANCM pull down at 100 uM incubated for 4 hrs by co-immunoprecipitation based Western blot analysis. The class given is cell-based. (In general: In western blotting, separated proteins are transferred to a membrane and probed.)

Calls of active or inactive are those of the source. The rule behind the calls is not given here. Positions of bridges follow the written chain, without caps; N, C: chain ends. Residues, ends and D or L forms follow the SMILES beside them.

Usually IC50 stands for the concentration needed to halve the response being measured. The term Kd denotes a measure of binding affinity in units of concentration.

As to `CC[C@H](C)[C@@H]1NC(=O)[C@H](Cc2ccccc2)NC(=O)[C@H](CO)NC(=O)[C@H]([C@@H](C)CC)NC(=O)[C@H](Cc2ccc(O)cc2)NC(=O)[C@H](CC(=O)O)NC(=O)[C@@H]2CCCN2C(=O)[C@H](CCCCN)NC(=O)[C@H](CC(C)C)NC(=O)CSC[C@@H](C(N)=O)NC(=O)[C@H](Cc2ccc(O)cc2)NC(=O)[C@H](Cc2ccc(O)cc2)NC(=O)[C@H](CO)NC1=O` ({CH2CO}-LKPDYISFISYYC-NH2; thioether N-13), in data set [1], the result was inactive.

Take Ac-YSILADKYYSIPC-NH2: in data set [1], the half-maximal inhibitory concentration (IC50) was more than 5000 nM.

Turning to Ac-YSILFDKYASIPC-NH2, the IC50 in data set [1] is more than 5000 nM. Still for that read-out and setting: the value for `CC[C@H](C)[C@H](NC(=O)[C@H](CO)NC(=O)[C@H](Cc1ccc(O)cc1)NC(=O)[C@H](Cc1ccc(O)cc1)NC(=O)[C@H](CCCCN)NC(=O)[C@H](CC(=O)O)NC(=O)[C@H](Cc1ccccc1)NC(=O)[C@H](CC(C)C)NC(=O)[C@H](C)NC(=O)[C@H](CO)NC(=O)[C@H](Cc1ccc(O)cc1)NC(C)=O)C(=O)N1CCC[C@H]1C(=O)N[C@H](CS)C(N)=O` was 4500 nM. As for `CC[C@H](C)[C@@H]1NC(=O)[C@H](CC(=O)O)NC(=O)CSC[C@@H](C(N)=O)NC(=O)[C@H](CO)NC(=O)[C@H](Cc2ccccc2)NC(=O)[C@H](Cc2ccc(O)cc2)NC(=O)[C@@H]2CCCN2C(=O)[C@H]([C@@H](C)CC)NC(=O)[C@H](Cc2ccc(O)cc2)NC(=O)[C@H](CO)NC(=O)[C@H](CC(C)C)NC(=O)[C@H](Cc2ccc(O)cc2)NC(=O)[C@H](CCCCN)NC1=O` ({CH2CO}-DIKYLSYIPYFSC-NH2; thioether N-13), in data set [1], the outcome was inactive. Turning to Ac-YSILFDKYYSIAC-NH2, in data set [1], the IC50 was found to be 114 nM. Regarding `CC[C@H](C)[C@H](NC(=O)[C@H](CC(=O)O)NC(=O)[C@@H]1CSCC(=O)N[C@@H](Cc2ccc(O)cc2)C(=O)N[C@@H](Cc2ccc(O)cc2)C(=O)N[C@@H](CCCCN)C(=O)N2CCC[C@H]2C(=O)N[C@@H]([C@@H](C)O)C(=O)N1)C(=O)N[C@H](C(=O)N[C@@H](CC(C)C)C(=O)N[C@@H](Cc1ccccc1)C(=O)N[C@@H](Cc1c[nH]c2ccccc12)C(=O)N[C@@H](CO)C(N)=O)[C@@H](C)CC` ({CH2CO}-YYKPTCDIILFWS-NH2; thioether N-6), the IC50 in data set [1] is more than 5000 nM. For the same compound, the outcome in the data set listed under Homo sapiens was inactive. As to Ac-YSILFDKYYSAPC-NH2, the IC50 in data set [1] turned out to be 999 nM. Consider Ac-YSILFAKYYSIPC-NH2, for which the IC50 in data set [1] was determined as 440 nM. Still for that read-out and setting: the same measure for Ac-YSIAFDKYYSIPC-NH2: 496 nM. As for `CC[C@H](C)[C@@H]1NC(=O)[C@H](Cc2ccc(O)cc2)NC(=O)CSC[C@@H](C(=O)N[C@@H](CC(C)C)C(=O)N[C@@H](Cc2c[nH]c3ccccc23)C(=O)N[C@@H](CO)C(N)=O)NC(=O)[C@H](Cc2ccccc2)NC(=O)[C@H](CCCCN)NC(=O)[C@H]([C@@H](C)CC)NC(=O)[C@H](C(C)C)NC(=O)[C@H]([C@@H](C)O)NC(=O)[C@H](CC(=O)O)NC(=O)[C@H]([C@@H](C)O)NC(=O)[C@H](Cc2c[nH]c3ccccc23)NC(=O)[C@H](CCCNC(=N)N)NC(=O)[C@H](CC(N)=O)NC(=O)[C@H]([C@@H](C)O)NC1=O` ({CH2CO}-YITNRWTDTVIKFCLWS-NH2; thioether N-14), the IC50 in data set [1] stood at 104 nM. Besides, the Kd in data set [2] was found to be 2 nM. Turning to Ac-ASILFDKYYSIPC-NH2, the half-maximal inhibitory concentration (IC50) in data set [1] amounted to 700 nM. Consider Ac-YSILFDKYYAIPC-NH2, for which, in data set [1], the half-maximal inhibitory concentration (IC50) worked out at 69 nM. For Ac-YSILFDKYYSIPC-NH2, the IC50 in data set [1] is more than 5000 nM. As for `CC[C@H](C)[C@@H]1NC(=O)[C@H](CO)NC(=O)[C@H](Cc2ccc(O)cc2)NC(=O)CSC[C@@H](C(N)=O)NC(=O)[C@@H]2CCCN2C(=O)[C@H]([C@@H](C)CC)NC(=O)[C@H](CO)NC(=O)[C@H](Cc2ccc(O)cc2)NC(=O)[C@H](Cc2ccc(O)cc2)NC(=O)[C@H](CCCCN)NC(=O)[C@H](CC(=O)O)NC(=O)[C@H](Cc2ccccc2)NC(=O)[C@H](CC(C)C)NC1=O` ({CH2CO}-YSILFDKYYSIPC-NH2; thioether N-13), the Stability entry in data set [3] is on record as “Stable”. The result in the data set with U2OS was Active. Moreover, in data set [1], the half-inhibitory concentration (IC50) was found to be 54 nM. Besides, the dissociation constant Kd in data set [2] amounted to 2.5 nM. As to Ac-YSILFDAYYDSIPC-NH2, the IC50 in data set [1] was 95 nM. Take `CC(C)C[C@@H]1NC(=O)[C@H](CCCNC(=N)N)NC(=O)[C@H](Cc2ccc(O)cc2)NC(=O)CSC[C@@H](C(N)=O)NC(=O)[C@@H]2CCCN2C(=O)[C@H](CC(C)C)NC(=O)[C@H](CCCCN)NC(=O)[C@H](Cc2ccc(O)cc2)NC(=O)[C@H]([C@@H](C)O)NC(=O)[C@H](CCC(N)=O)NC(=O)[C@H](Cc2ccccc2)NC(=O)[C@H](Cc2ccccc2)NC(=O)[C@H](Cc2c[nH]c3ccccc23)NC1=O` ({CH2CO}-YRLWFFQTYKLPC-NH2; thioether N-13): the IC50 in data set [1] came out at 78 nM. In addition, the Kd in data set [2] came out at 10 nM. In the case of Ac-YAILFDKYYSIPC-NH2, the half-maximal inhibitory concentration (IC50) in data set [1] was 115 nM. Still for that read-out and setting: the same measure for Ac-YSILFDKAYSIPC-NH2: 338 nM.

Values taken from ChEMBL document CHEMBL6182932, “Potent Cyclic Peptide Inhibitors Disrupt the FANCM-RMI Interaction” (J Med Chem, 2025).
